According to patent US9302999B2, “Substituted triazoles as herbicides” (E. I. DU PONT DE NEMOURS AND COMPANY, priority 2012, dated 2016):

Assays:
Type in all cases: in vivo
Settings in all cases: Preemergence, scale 0 to 100
[1] = system: lambsquarters (Chenopodium album); assay: Test E pre-/postemergence: lambsquarters
Description: (§1) Seeds of plant species selected from corn (Zea mays), soybean (Glycine max), velvetleaf (Abutilon theophrasti), lambsquarters (Chenopodium album), poinsettia, wild (wild poinsettia, Euphorbia heterophylla), pigweed, palmer (palmer pigweed, Amaranthus palmeri), waterhemp (common waterhemp, Amaranthus rudis), smartweed (ladysthumb smartweed, Polygonum persicaria), surinam grass (Brachiaria decumbens), crabgrass, large (large crabgrass, Digitaria sanguinalis), crabgrass, Brazil (Brazilian crabgrass, Digitaria horizontalis), panicum, fall (fall panicum, Panicum dichotomiflorum), foxtail, giant (giant foxtail, Setaria faberii), foxtail, green (green foxtail, Setaria viridis), goosegrass (Eleusine indica), johnsongrass (Sorghum halepense), ragweed (common ragweed, Ambrosia elation), barnyardgrass (Echinochloa crus-galli), sandbur (southern sandbur, Cenchrus echinatus), arrowleaf sida (Sida rhombifolia), ryegrass, Italian (Italian ryegrass, Lolium multiflorum), dayflower, (VA) (Virginia dayflower, Commelina virginica), field bindweed (Convolvulus arvensis), cocklebur (common cocklebur, Xanthium strumarium), morningglory (Ipomoea coccinea), nightshade (eastern black nightshade, Solanum ptycanthum), kochia (Kochia scoparia), nutsedge, yellow (yellow nutsedge, Cyperus esculentus) and beggarticks (hairy beggarticks, Bidens pilosa) were planted into a silt loam soil and treated preemergence with test chemicals formulated in a non-phytotoxic solvent mixture which included a surfactant. At the same time, plants selected from these crop and weed species were planted in pots containing a growing medium comprising spaghnum peat moss, vermiculite, wetting agent and starter nutrients and treated with postemergence applications of some of the test chemicals formulated in the same manner. Plants ranged in height from 2 to 18 cm for postemergence treatments (1- to 4-leaf stage).
(§2) Treated plants and controls were maintained in a greenhouse for 14 to 21 days, after which time all species were compared to controls and visually evaluated. Plant response ratings, summarized in Table E, are based on a scale of 0 to 100 where 0 is no effect and 100 is complete control. A dash (-) response means no test result.

[2] = system: poinsettia, wild (wild poinsettia, Euphorbia heterophylla); assay: Test E pre-/postemergence: poinsettia, wild
Description: as §1, §2

[3] = system: smartweed (ladysthumb smartweed, Polygonum persicaria); assay: Test E pre-/postemergence: smartweed
Procedure, shortened: (§3)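 Visual injury scored 0–100 (0 no effect, 100 complete control) against controls after 14 to 21 days in greenhouse. Compounds formulated in surfactant-containing non-phytotoxic solvent, applied pre-emergence to seeded silt loam or post-emergence to 1- to 4-leaf plants in peat-based medium.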

[4] = system: crabgrass, large (large crabgrass, Digitaria sanguinalis); assay: Test E pre-/postemergence: crabgrass, large
Description: as §1, §2

[5] = system: crabgrass, Brazil (Brazilian crabgrass, Digitaria horizontalis); assay: Test E pre-/postemergence: crabgrass, Brazil
Description: as §1, §2

[6] = system: panicum, fall (fall panicum, Panicum dichotomiflorum); assay: Test E pre-/postemergence: panicum, fall
Procedure, shortened: as §3

[7] = system: goosegrass (Eleusine indica); assay: Test E pre-/postemergence: goosegrass
Procedure, shortened: as §3

[8] = system: johnsongrass (Sorghum halepense); assay: Test E pre-/postemergence: johnsongrass
Procedure, shortened: as §3

[9] = system: nightshade (eastern black nightshade, Solanum ptycanthum); assay: Test E pre-/postemergence: nightshade
Procedure, shortened: as §3

kochia (Kochia scoparia) = assay: Test E pre-/postemergence: kochia
Description: as §1, §2

[10] = system: beggarticks (hairy beggarticks, Bidens pilosa); assay: Test E pre-/postemergence: beggarticks
Description: as §1, §2

COc1nn(-c2ccc(C(F)(F)F)cc2)nc1Cc1ccnc(C(F)(F)F)c1 [Compound 15, 4-[[5-methoxy-2-[4-(trifluoromethyl)phenyl]-2H-1,2,3-triazol-4-yl]methyl]-2-(trifluoromethyl)pyridine]
75: Plant response rating: Poinsettia, Wild ([2]; 125 g ai/ha) | Plant response rating: Goosegrass ([7]; 16 g ai/ha)
60: Plant response rating: Smartweed ([3]; 31 g ai/ha) | Plant response rating: Crabgrass, Brazil ([5]; 16 g ai/ha)
15: Plant response rating: Crabgrass, Large ([4]; 16 g ai/ha)
65: Plant response rating: Poinsettia, Wild ([2]; 62 g ai/ha) | Plant response rating: Johnsongrass ([8]; 31 g ai/ha) | Plant response rating: Johnsongrass ([8]; 62 g ai/ha) | Plant response rating: Kochia (kochia (Kochia scoparia); 31 g ai/ha)
100: Plant response rating: Lambsquarters ([1]; 31 g ai/ha) | Plant response rating: Lambsquarters ([1]; 62 g ai/ha) | Plant response rating: Lambsquarters ([1]; 125 g ai/ha) | Plant response rating: Lambsquarters ([1]; 250 g ai/ha) | Plant response rating: Smartweed ([3]; 250 g ai/ha) | Plant response rating: Crabgrass, Large ([4]; 62 g ai/ha) | Plant response rating: Crabgrass, Large ([4]; 125 g ai/ha) | Plant response rating: Crabgrass, Large ([4]; 250 g ai/ha) | Plant response rating: Crabgrass, Brazil ([5]; 62 g ai/ha) | Plant response rating: Crabgrass, Brazil ([5]; 125 g ai/ha) | Plant response rating: Crabgrass, Brazil ([5]; 250 g ai/ha) | Plant response rating: Panicum, Fall ([6]; 62 g ai/ha) | Plant response rating: Panicum, Fall ([6]; 125 g ai/ha) | Plant response rating: Panicum, Fall ([6]; 250 g ai/ha) | Plant response rating: Goosegrass ([7]; 31 g ai/ha) | Plant response rating: Goosegrass ([7]; 62 g ai/ha) | Plant response rating: Goosegrass ([7]; 125 g ai/ha) | Plant response rating: Goosegrass ([7]; 250 g ai/ha) | Plant response rating: Johnsongrass ([8]; 250 g ai/ha) | Plant response rating: Nightshade ([9]; 250 g ai/ha) | Plant response rating: Kochia (kochia (Kochia scoparia); 125 g ai/ha) | Plant response rating: Kochia (kochia (Kochia scoparia); 250 g ai/ha) | Plant response rating: Beggarticks ([10]; 250 g ai/ha)
5: Plant response rating: Nightshade ([9]; 16 g ai/ha) | Plant response rating: Beggarticks ([10]; 16 g ai/ha) | Plant response rating: Beggarticks ([10]; 31 g ai/ha)
10: Plant response rating: Johnsongrass ([8]; 16 g ai/ha)
90: Plant response rating: Lambsquarters ([1]; 16 g ai/ha) | Plant response rating: Crabgrass, Large ([4]; 31 g ai/ha) | Plant response rating: Kochia (kochia (Kochia scoparia); 62 g ai/ha)
50: Plant response rating: Beggarticks ([10]; 62 g ai/ha)
98: Plant response rating: Smartweed ([3]; 62 g ai/ha) | Plant response rating: Smartweed ([3]; 125 g ai/ha) | Plant response rating: Crabgrass, Brazil ([5]; 31 g ai/ha) | Plant response rating: Panicum, Fall ([6]; 16 g ai/ha) | Plant response rating: Panicum, Fall ([6]; 31 g ai/ha) | Plant response rating: Johnsongrass ([8]; 125 g ai/ha) | Plant response rating: Nightshade ([9]; 62 g ai/ha) | Plant response rating: Nightshade ([9]; 125 g ai/ha)
35: Plant response rating: Nightshade ([9]; 31 g ai/ha) | Plant response rating: Kochia (kochia (Kochia scoparia); 16 g ai/ha)
80: Plant response rating: Poinsettia, Wild ([2]; 250 g ai/ha) | Plant response rating: Beggarticks ([10]; 125 g ai/ha)
30: Plant response rating: Poinsettia, Wild ([2]; 16 g ai/ha) | Plant response rating: Poinsettia, Wild ([2]; 31 g ai/ha)
